Results published in ChEMBL document CHEMBL5325424, “Structural design, synthesis, and anti-Trypanosomatidae profile of new Pyridyl-thiazolidinones” (Eur J Med Chem, 2023).
Active and inactive are the calls of the source. The rule behind the calls is not given here.

Key:
[1] = Selectivity index, ratio of CC50 for mouse RAW264.7 cells to IC50 for Leishmania amazonensis WHOM/00 LTB 0016 promastigotes; type: toxicity; settings: read-out: Ratio CC50/IC50
Leishmania amazonensis [2] = test: Antileishmanial activity against Leishmania amazonensis WHOM/00 LTB 0016 amastigotes infected in mouse RAW264.7 cells assessed as parasite growth inhibition incubated for 24 hrs by panoptic staining based assay; type: functional, organism-based; settings: WHOM/00 LTB 0016, RAW264.7, 24 h
Splenocyte [3] = test: Immunomodulatory activity in mouse splenocytes assessed as reduction in IL-6 level at 10 ug/ml incubated for 24 hrs by flow cytometry; type: functional, cell-based; settings: dose 10.0 µg/ml
[4] = Selectivity index, ratio of CC50 for mouse RAW264.7 cells to IC50 for Leishmania amazonensis WHOM/00 LTB 0016 amastigotes infected in mouse RAW264.7 cells; type: toxicity, cell-based; settings: read-out: Ratio CC50/IC50
Leishmania amazonensis [5] = test: Antileishmanial activity against Leishmania amazonensis WHOM/00 LTB 0016 promastigotes assessed as parasite growth inhibition incubated for 72 hrs; type: functional, organism-based; settings: WHOM/00 LTB 0016, 72 h
[6] = Cytotoxicity against mouse RAW264.7 cells incubated for 48 hrs by MTT assay; type: toxicity, cell-based
Trypanosoma cruzi [7] = test: Antitrypanosomal activity against Trypanosoma cruzi Y trypomastigotes infected in African green monkey Vero cells assessed as parasite growth inhibition incubated for 24 hrs by hemocytometry; type: functional, organism-based
[8] = Selectivity index, ratio of CC50 for mouse RAW264.7 cells to IC50 for Trypanosoma cruzi Y trypomastigotes infected in African green monkey Vero cells; type: toxicity; settings: read-out: Ratio CC50/IC50
[9] = Selectivity index, ratio of CC50 for mouse RAW264.7 cells to IC50 for Trypanosoma cruzi Tulahuen amastigotes infected in mouse L929 cells; type: toxicity, cell-based; settings: read-out: Ratio CC50/IC50
Trypanosoma cruzi [10] = test: Antitrypanosomal activity against Trypanosoma cruzi Tulahuen amastigotes infected in mouse L929 cells assessed as parasite growth inhibition measured after 7 days by CPRG/Nonidet based assay; type: functional, organism-based; settings: L929, 168 h
Trypanosoma cruzi [11] = test: Induction of apoptosis in Trypanosoma cruzi trypomastigotes assessed as necrotic cells at IC50 incubated for 24 hrs by annexin V-FITC/PI staining based flow cytometry (reference value: 4.05 %); type: functional
Trypanosoma cruzi [12] = test: Induction of morphological changes in Trypanosoma cruzi trypomastigotes assessed as appearance of loss of cytoplasmic content at 2 times IC50 incubated for 24 hrs by SEM analysis; type: functional, organism-based
Trypanosoma cruzi [13] = test: Induction of morphological changes in Trypanosoma cruzi trypomastigotes assessed as appearance of contorted body at IC50 incubated for 24 hrs by SEM analysis; type: functional, organism-based
Splenocyte [14] = test: Immunomodulatory activity in mouse splenocytes assessed as effect on IFN-gamma level at 10 ug/ml incubated for 24 to 96 hrs by flow cytometry; type: functional, cell-based; settings: dose 10.0 µg/ml, time 24-96 hrs
Trypanosoma cruzi [15] = test: Induction of morphological changes in Trypanosoma cruzi trypomastigotes assessed as appearance of shortened flagellum at IC50 incubated for 24 hrs by SEM analysis; type: functional, organism-based
Trypanosoma cruzi [16] = test: Induction of apoptosis in Trypanosoma cruzi trypomastigotes assessed as necrotic cells at 2 times IC50 incubated for 24 hrs by annexin V-FITC/PI staining based flow cytometry (reference value: 4.05 %); type: functional
Trypanosoma cruzi [17] = test: Induction of morphological changes in Trypanosoma cruzi trypomastigotes assessed as appearance of rounded body at 2 times IC50 incubated for 24 hrs by SEM analysis; type: functional, organism-based
Trypanosoma cruzi [18] = test: Induction of apoptosis in Trypanosoma cruzi trypomastigotes assessed as early apoptotic cells at IC50 incubated for 24 hrs by annexin V-FITC/PI staining based flow cytometry (reference value: 0.10 %); type: functional
Trypanosoma cruzi [19] = test: Induction of apoptosis in Trypanosoma cruzi trypomastigotes assessed as late apoptotic cells at IC50 incubated for 24 hrs by annexin V-FITC/PI staining based flow cytometry (reference value: 2.58 %); type: functional
Trypanosoma cruzi [20] = test: Induction of morphological changes in Trypanosoma cruzi trypomastigotes assessed as appearance of thinned flagellum at 2 times IC50 incubated for 24 hrs by SEM analysis; type: functional, organism-based
Trypanosoma cruzi [21] = test: Induction of apoptosis in Trypanosoma cruzi trypomastigotes assessed as late apoptotic cells at 2 times IC50 incubated for 24 hrs by annexin V-FITC/PI staining based flow cytometry (reference value: 2.58 %); type: functional
Trypanosoma cruzi [22] = test: Induction of morphological changes in Trypanosoma cruzi trypomastigotes membrane assessed as appearance of membrane rupture at 2 times IC50 incubated for 24 hrs by SEM analysis
Splenocyte [23] = test: Immunomodulatory activity in mouse splenocytes assessed as reduction in IL-6 level at 10 ug/ml incubated for 96 hrs by flow cytometry; type: functional, cell-based; settings: dose 10.0 µg/ml
Trypanosoma cruzi [24] = test: Induction of apoptosis in Trypanosoma cruzi trypomastigotes assessed as early apoptotic cells at 2 times IC50 incubated for 24 hrs by annexin V-FITC/PI staining based flow cytometry (reference value: 0.10 %); type: functional

Row | SMILES | selectivity ratio [1] | IC50 (Leishmania amazonensis [2]) | selectivity ratio [4] | IC50 (Leishmania amazonensis [5]) | CC50 at 48 h [6] | IC50 (Trypanosoma cruzi [7]) | selectivity ratio [8] | selectivity ratio [9] | IC50 (Trypanosoma cruzi [10]) | also measured
1 | CCCCCCCCCCCCCCCCOP(=O)([O-])OCC[N+](C)(C)C [MILTEFOSINE] | 8.79 | 7.08 µM | 17.5 | 15.8 µM | – | – | – | – | – | Activity (Splenocyte [3]): Active
2 | CNC(=S)N/N=C(\C)c1ccccn1 | 0.1 | 27.2 µM | 0.27 | 69.5 µM | 7.49 µM | 84.4 µM | 0.08 | 9.75 | 0.76 µM | –
3 | C/C(=N\N=C1/SCC(=O)N1c1ccccc1)c1ccccn1 | 0.9 | 322 µM | 0.69 | 259 µM | 223 µM | 4.2 µM | 53.2 | 25.5 | 8.74 µM | –
4 | C/C(=N\NC(=S)Nc1ccccc1)c1ccccn1 | 0.13 | 85.5 µM | 0.06 | 41.4 µM | 5.77 µM | 5.77 µM | 1 | 82.4 | 0.07 µM | –
5 | CN1C(=O)CS/C1=N/N=C/c1ccccn1 | 0.3 | 427 µM | 0.64 | 854 µM | 274 µM | 427 µM | 0.6 | 47.1 | 5.81 µM | –
6 | C/C(=N\N=C1/SCC(=O)N1c1ccccc1)c1ccncc1 | 0.2 | 323 µM | 0.48 | 644 µM | 155 µM | 322 µM | 0.5 | 250 | 0.62 µM | –
7 | C/C(=N\N=C1\NC(=O)CS1)c1ccccn1 | 8.9 | 241 µM | 0.55 | 15.1 µM | 134 µM | 38 µM | 3.5 | 14.7 | 9.15 µM | –
8 | S=C(N/N=C/c1ccccn1)Nc1ccccc1 | 0.51 | 36.7 µM | 0.16 | 11.8 µM | 6.09 µM | 6.09 µM | 1 | 31.2 | 0.19 µM | Activity (Trypanosoma cruzi [11]): 6.13%; Activity (Trypanosoma cruzi [12]): Active; Activity (Trypanosoma cruzi [13]): Active; Activity (Splenocyte [14]): inactive; Activity (Trypanosoma cruzi [15]): Active; Activity (Trypanosoma cruzi [16]): 6.42%; Activity (Trypanosoma cruzi [17]): Active; Activity (Trypanosoma cruzi [18]): 0.07%; Activity (Splenocyte [3]): Active; Activity (Trypanosoma cruzi [19]): 1.43%; Activity (Trypanosoma cruzi [20]): Active; Activity (Trypanosoma cruzi [21]): 2.9%; Activity (Trypanosoma cruzi [22]): Active; Activity (Splenocyte [23]): Active; Activity (Trypanosoma cruzi [24]): 10.3%
9 | C/C(=N\NC(N)=S)c1ccncc1 | 4.5 | 515 µM | 0.9 | 104 µM | 464 µM | 168 µM | 2.76 | 1.91 | 242 µM | –
10 | C/C(=N\N=C1/NC(=O)CS1)c1ccncc1 | 0.3 | 427 µM | 0.64 | 854 µM | 276 µM | 185 µM | 1.5 | 43.8 | 6.3 µM | –
11 | CNC(=S)N/N=C(\C)c1ccncc1 | 2.43 | 481 µM | 1.18 | 233 µM | 567 µM | 51.1 µM | 11.1 | 2.4 | 235 µM | –
12 | CN1C(=O)C(C)(C)S/C1=N/N=C/c1ccccn1 | 10.1 | 380 µM | 1.01 | 38.3 µM | 387 µM | 53.9 µM | 7.2 | 477 | 0.81 µM | –
13 | C/C(=N\N=C1/SCC(=O)N1C)c1ccncc1 | 0.5 | 403 µM | 1.05 | 806 µM | 426 µM | 403 µM | 1.1 | 56.2 | 7.59 µM | –
14 | C/C(=N\N=C1/NC(=O)C(C(C)C)S1)c1ccncc1 (stereo not given) | 0.2 | 72.4 µM | 2.46 | 724 µM | 179 µM | 362 µM | 0.5 | 2.46 | 72.4 µM | –
15 | C/C(=N\N=C1\SC(C(C)C)C(=O)N1c1ccccc1)c1ccncc1 (stereo not given) | 13.2 | 5.7 µM | 51.9 | 22.4 µM | 296 µM | 1.5 µM | 197 | 332 | 0.89 µM | –
16 | C/C(=N\N=C1\SC(C(C)C)C(=O)N1C)c1ccncc1 (stereo not given) | 0.5 | 68.9 µM | 5.17 | 689 µM | 356 µM | 344 µM | 1 | 5.17 | 68.9 µM | –
